Data reported in article doi:10.1101/2023.11.24.568596v1 (biorxiv, 2023).

Key:
Conditions in all cases: binder
[1] = target: T1, DRAK1 (Homo sapiens, UniProt Q9UEE5)
T1 sequence (Q9UEE5 1-414): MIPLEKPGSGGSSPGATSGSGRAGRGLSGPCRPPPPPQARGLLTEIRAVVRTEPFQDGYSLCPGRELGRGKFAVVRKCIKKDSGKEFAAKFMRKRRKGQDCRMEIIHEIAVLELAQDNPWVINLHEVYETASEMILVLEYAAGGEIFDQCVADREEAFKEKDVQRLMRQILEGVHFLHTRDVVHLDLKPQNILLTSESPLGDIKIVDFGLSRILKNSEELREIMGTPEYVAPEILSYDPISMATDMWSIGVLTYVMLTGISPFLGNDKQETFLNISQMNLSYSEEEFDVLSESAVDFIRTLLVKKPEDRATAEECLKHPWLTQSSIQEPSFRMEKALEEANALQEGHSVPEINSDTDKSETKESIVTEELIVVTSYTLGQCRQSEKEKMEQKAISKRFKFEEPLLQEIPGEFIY

[2] = target: FGFR2 (Homo sapiens, UniProt P21802)
FGFR2, sequence (P21802 whole entry): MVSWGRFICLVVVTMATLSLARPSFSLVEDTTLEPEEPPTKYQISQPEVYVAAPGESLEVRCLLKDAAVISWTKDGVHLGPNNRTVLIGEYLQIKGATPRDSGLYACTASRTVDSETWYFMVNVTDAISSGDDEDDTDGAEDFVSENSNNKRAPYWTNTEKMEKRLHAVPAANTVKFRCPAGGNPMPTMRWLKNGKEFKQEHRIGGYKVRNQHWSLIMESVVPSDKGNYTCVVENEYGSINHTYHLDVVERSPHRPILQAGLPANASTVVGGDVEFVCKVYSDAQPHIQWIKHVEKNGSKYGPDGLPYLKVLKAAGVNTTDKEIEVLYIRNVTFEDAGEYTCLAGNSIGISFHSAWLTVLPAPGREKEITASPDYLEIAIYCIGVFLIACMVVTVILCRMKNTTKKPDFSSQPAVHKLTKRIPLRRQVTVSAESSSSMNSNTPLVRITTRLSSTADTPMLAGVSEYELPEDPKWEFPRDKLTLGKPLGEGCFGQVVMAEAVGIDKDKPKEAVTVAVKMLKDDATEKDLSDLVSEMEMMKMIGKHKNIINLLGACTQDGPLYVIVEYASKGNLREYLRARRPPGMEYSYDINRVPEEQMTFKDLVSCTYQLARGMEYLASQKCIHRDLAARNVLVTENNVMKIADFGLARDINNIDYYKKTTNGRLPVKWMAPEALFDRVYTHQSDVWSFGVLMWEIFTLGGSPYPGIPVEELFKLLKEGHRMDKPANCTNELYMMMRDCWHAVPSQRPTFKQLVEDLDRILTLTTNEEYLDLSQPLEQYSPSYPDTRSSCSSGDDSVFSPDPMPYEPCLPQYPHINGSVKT

[3] = target: T2, GAK (Homo sapiens, UniProt O14976)
T2 sequence (O14976 1-1311): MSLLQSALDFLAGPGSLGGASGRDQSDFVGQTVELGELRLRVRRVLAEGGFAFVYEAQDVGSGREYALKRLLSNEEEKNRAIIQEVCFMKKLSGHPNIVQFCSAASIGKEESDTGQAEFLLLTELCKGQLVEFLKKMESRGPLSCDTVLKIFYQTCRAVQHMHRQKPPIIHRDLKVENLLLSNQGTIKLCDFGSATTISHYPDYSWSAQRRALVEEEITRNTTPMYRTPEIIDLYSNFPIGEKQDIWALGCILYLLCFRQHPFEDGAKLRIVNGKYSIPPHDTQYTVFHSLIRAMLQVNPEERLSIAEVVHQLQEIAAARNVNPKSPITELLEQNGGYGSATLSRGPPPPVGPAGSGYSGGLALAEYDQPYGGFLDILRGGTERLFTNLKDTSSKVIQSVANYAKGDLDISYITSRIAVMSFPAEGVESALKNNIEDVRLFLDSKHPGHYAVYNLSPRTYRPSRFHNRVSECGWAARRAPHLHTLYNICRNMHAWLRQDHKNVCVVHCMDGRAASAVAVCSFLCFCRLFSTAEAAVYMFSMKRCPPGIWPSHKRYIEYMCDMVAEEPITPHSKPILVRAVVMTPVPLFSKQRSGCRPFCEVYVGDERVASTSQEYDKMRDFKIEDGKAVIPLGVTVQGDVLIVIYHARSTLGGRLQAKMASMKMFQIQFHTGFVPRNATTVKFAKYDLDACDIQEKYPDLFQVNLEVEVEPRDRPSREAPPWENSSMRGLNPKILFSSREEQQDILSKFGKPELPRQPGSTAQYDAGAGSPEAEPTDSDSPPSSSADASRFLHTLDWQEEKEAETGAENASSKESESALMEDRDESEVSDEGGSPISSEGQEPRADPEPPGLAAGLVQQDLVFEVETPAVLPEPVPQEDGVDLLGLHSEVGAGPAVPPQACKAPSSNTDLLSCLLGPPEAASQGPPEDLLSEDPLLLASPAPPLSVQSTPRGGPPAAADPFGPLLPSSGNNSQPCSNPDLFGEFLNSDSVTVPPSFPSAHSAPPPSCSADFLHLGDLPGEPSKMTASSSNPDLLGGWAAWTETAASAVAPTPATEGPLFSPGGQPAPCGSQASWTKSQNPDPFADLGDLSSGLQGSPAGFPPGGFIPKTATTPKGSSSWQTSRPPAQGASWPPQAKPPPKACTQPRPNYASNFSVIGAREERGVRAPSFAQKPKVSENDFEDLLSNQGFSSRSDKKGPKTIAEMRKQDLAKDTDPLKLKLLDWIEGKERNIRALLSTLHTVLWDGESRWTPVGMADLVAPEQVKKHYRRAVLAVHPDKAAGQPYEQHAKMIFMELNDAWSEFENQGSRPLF

[4] = target: LOK (Homo sapiens, UniProt O94804)
LOK, sequence (O94804 whole entry): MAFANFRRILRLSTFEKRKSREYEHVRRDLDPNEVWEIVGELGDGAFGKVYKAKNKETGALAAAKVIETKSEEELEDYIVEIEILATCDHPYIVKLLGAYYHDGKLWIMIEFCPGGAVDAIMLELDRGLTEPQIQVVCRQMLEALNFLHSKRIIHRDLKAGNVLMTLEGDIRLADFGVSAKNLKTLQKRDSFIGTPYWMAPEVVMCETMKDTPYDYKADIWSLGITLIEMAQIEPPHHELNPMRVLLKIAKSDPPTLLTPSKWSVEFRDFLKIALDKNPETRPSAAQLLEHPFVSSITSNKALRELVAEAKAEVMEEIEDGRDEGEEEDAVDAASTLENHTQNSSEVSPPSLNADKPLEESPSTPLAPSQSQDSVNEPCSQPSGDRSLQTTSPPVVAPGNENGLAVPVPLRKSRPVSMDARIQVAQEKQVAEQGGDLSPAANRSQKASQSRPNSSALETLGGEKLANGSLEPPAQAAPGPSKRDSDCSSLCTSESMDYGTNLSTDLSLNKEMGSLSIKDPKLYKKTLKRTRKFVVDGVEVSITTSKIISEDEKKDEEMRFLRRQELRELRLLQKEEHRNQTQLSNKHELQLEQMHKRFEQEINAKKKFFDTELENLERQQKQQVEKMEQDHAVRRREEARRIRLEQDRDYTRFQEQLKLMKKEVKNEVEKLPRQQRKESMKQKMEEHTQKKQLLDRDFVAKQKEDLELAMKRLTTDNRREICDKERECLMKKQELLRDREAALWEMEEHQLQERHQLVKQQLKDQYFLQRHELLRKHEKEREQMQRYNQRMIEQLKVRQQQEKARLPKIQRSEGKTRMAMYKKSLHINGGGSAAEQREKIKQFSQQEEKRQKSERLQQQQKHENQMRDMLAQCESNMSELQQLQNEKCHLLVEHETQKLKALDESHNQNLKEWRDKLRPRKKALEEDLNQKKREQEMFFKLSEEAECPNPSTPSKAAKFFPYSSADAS

[5] = target: PCTAIRE1 (Homo sapiens, UniProt Q00536)
PCTAIRE1, sequence (Q00536 whole entry): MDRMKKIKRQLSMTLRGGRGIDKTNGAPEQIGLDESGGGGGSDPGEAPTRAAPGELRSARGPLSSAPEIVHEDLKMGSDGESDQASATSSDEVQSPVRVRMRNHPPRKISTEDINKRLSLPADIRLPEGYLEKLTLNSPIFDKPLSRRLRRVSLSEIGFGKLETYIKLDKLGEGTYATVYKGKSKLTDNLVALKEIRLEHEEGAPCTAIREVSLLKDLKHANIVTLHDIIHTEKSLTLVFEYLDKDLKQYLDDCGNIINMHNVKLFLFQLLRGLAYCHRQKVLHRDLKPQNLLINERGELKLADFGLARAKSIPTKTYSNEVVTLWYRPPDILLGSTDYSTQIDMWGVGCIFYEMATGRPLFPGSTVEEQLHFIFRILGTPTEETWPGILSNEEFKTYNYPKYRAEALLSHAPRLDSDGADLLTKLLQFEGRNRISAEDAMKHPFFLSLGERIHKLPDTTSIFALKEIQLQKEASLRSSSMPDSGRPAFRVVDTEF

[6] = target: T3, PLK4 (Homo sapiens, UniProt O00444)
T3 sequence (O00444 1-970): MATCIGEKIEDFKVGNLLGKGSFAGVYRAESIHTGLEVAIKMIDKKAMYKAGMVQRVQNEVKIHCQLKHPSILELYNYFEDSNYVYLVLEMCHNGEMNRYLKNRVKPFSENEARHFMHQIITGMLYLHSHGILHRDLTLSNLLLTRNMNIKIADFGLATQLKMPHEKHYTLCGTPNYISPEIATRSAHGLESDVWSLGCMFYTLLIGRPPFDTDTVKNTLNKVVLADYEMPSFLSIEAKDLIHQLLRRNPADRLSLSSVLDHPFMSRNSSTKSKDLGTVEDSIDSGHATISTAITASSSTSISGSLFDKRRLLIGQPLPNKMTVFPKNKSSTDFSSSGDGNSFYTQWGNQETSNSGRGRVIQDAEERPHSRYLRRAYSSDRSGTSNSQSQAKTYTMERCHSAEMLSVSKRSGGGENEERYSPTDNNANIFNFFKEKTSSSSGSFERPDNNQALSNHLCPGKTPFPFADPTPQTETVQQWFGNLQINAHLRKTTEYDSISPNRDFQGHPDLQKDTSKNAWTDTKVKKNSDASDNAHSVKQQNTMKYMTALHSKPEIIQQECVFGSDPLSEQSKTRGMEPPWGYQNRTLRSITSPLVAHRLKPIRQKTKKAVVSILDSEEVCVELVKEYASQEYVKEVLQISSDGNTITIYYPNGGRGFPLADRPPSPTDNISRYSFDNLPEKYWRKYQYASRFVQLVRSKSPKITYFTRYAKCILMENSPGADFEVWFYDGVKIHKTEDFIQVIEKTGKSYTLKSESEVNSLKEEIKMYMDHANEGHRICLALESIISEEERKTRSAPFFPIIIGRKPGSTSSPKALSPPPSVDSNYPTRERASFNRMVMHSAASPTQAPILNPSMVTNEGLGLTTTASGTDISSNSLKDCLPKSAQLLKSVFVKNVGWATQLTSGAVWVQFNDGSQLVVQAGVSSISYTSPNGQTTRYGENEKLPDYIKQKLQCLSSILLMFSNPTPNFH

`Cc1cccc(-c2ccc(-c3cc4cnc(Nc5ccc(F)c(CO)c5)nc4n(CCCCN)c3=O)c(Cl)c2)n1` [compound 33, 8-(4-Aminobutyl)-6-(2-chloro-4-(6-methylpyridin-2-yl)phenyl)-2-((4-fluoro-3-(hydroxymethyl)phenyl)amino)pyrido[2,3-d]pyrimidin-7(8H)-one] was tested, and the “dTm 33” value [1] was 3.5 °C, the “dTm 33” value [2] was 3.3 °C and the “dTm 33” value [3] was 12.5 °C. For the same compound, the “dTm 33” value [4] was -0.3 °C, the “dTm 33” value [5] was 5.2 °C and the “dTm 33” value [6] was 13.1 °C.
In the case of `COc1ccc(O)c(Nc2ncc3cc(-c4ccc(-c5cccc(C)n5)cc4Cl)c(=O)n(CCCCN)c3n2)c1` [compound 34, 8-(4-Aminobutyl)-6-(2-chloro-4-(6-methylpyridin-2-yl)phenyl)-2-((2-hydroxy-5-methoxy-phenyl)amino)pyrido[2,3-d]pyrimidin-7(8H)-one], the “dTm 34” value [1] is reported as 2.2 °C, the “dTm 34” value [2] is reported as 2.0 °C and the “dTm 34” value [3] is reported as 9.3 °C. The “dTm 34” value [4] was -0.3 °C, the “dTm 34” value [5] was 0.6 °C and the “dTm 34” value [6] was 8.8 °C.
For `COc1cc(N2CCOCC2)ccc1Nc1ncc2cc(-c3ccc(-c4cccc(C)n4)cc3Cl)c(=O)n(CCCCN)c2n1` [compound 35, 8-(4-Aminobutyl)-6-(2-chloro-4-(6-methylpyridin-2-yl)phenyl)-2-((2-methoxy-4-morpholino-phenyl)amino)pyrido[2,3-d]pyrimidin-7(8H)-one], the “dTm 35” value [1] was 5.2 °C, the “dTm 35” value [2] was 2.4 °C and the “dTm 35” value [3] was 13.5 °C. The “dTm 35” value [4] was -0.8 °C, the “dTm 35” value [5] was 0.1 °C and the “dTm 35” value [6] was 13.6 °C.
`COc1cc(N2CCN(C)CC2)ccc1Nc1ncc2cc(-c3ccc(-c4cccc(C)n4)cc3Cl)c(=O)n(CCCCN)c2n1` [compound 36, 8-(4-Aminobutyl)-6-(2-chloro-4-(6-methylpyridin-2-yl)phenyl)-2-((2-methoxy-4-(4-methylpiperazin-1-yl)phenyl)amino)pyrido[2,3-d]pyrimidin-7(8H)-one] was tested, and the “dTm 36” value [1] was 6.1 °C, the “dTm 36” value [2] was 2.9 °C and the “dTm 36” value [3] was 11.7 °C. For the same compound, the “dTm 36” value [4] was -0.4 °C, the “dTm 36” value [5] was 0.2 °C and the “dTm 36” value [6] was 11.8 °C.
